One experiment addresses T1, integrin α 4β7 (Homo sapiens, UniProt P13612+P26010).
T1 construct: lymphoma cell strain RPMI-8866 of human B cells, known to express integrin α 4β7; endogenous in cells; host or cells: RPMI-8866 (human B lymphoma cell line)
T1 sequence (P13612 34-1032): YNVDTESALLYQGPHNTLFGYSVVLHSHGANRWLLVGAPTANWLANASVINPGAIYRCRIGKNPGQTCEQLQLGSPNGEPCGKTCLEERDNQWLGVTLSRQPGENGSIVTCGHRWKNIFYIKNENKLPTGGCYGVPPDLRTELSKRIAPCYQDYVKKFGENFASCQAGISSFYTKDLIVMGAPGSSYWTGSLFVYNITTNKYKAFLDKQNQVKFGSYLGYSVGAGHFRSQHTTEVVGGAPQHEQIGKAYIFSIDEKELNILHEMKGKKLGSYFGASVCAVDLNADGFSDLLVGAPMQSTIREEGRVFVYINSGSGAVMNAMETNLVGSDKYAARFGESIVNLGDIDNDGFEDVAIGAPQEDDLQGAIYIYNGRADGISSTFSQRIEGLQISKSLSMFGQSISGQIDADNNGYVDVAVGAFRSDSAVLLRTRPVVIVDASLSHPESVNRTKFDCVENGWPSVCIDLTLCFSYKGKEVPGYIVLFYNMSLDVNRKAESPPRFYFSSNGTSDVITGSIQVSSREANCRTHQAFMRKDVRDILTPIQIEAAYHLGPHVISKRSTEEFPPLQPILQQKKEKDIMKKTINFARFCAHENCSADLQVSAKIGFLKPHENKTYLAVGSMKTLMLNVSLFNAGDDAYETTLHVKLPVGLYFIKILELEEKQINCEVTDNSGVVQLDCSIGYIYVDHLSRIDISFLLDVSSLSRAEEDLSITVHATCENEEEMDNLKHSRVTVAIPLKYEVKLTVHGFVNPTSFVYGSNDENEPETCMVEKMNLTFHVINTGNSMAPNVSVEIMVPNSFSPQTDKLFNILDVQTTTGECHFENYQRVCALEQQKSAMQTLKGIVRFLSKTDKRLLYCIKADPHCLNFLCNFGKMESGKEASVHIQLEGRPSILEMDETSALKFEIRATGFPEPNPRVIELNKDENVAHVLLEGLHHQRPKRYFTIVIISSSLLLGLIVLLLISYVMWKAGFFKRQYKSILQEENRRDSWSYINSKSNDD
T1 sequence (P26010 20-798): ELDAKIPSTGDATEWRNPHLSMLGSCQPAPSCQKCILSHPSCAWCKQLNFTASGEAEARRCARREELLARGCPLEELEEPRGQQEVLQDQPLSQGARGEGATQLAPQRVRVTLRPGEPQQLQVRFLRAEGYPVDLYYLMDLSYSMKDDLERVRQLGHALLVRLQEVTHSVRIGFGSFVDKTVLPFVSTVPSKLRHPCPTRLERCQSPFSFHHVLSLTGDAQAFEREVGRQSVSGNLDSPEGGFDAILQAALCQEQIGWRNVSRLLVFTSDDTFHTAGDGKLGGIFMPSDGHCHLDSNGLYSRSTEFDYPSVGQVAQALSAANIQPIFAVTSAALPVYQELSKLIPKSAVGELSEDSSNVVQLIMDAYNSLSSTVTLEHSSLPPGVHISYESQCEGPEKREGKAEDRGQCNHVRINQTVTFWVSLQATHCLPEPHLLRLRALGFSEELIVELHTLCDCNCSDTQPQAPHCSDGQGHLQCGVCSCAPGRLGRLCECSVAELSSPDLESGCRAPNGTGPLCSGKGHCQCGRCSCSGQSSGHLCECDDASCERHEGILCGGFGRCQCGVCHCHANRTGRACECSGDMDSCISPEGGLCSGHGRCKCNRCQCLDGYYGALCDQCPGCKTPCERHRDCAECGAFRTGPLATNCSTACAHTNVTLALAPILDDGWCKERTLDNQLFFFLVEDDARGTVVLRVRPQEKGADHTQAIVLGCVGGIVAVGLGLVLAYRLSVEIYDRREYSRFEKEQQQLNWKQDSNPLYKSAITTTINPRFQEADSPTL
The experiment can be described thus: VCAM antagonistic activity (VCAM-1/α4β7 binding assay), RPMI-8866 cells binding to VCAM-1. It counts as cell-based. To be noted: RPMI-8866 cells (human B cells) binding to recombinant human VCAM-1; binding buffer containing 4 mM of MnCl2; room temperature, 30 minutes; read-out: VCAM-1/α 4 β 7 linking antagonization activity IC50. On the procedure:
(Test Example) VCAM Antagonistic Activity (VCAM-1/α4β7 Binding Assay):
The capacity of a test substance antagonistic to the binding of lymphoma cell strain RPMI-8866 of human B cells, known to express integrin α 4β7, to VCAM-1 was determined.
(§1) 100 μl/well of a solution (500 ng/ml) of recombinant human VCAM-1 (R & D systems) solution diluted with buffer A (0.1 M NaHCO3, pH 9.6) was added to a micro titer plate having 96 wells (Nunc Maxisorp). After the incubation at 4° C. overnight, unbound VCAM-1 was removed by washing once with PBS. After completion of the washing, a buffer (buffer B) obtained by diluting Block Ace® (Dainippon Pharmaceutical Co., Ltd.) with PBS to ¼ concentration was added in an amount of 150 μl/well. After the incubation at room temperature for 1 hour, buffer B was removed and the plate was washed with PBS once.
RPMI-8866 cells were incubated in DMEM containing 10 μg/ml of Calcein-AM (Wako Pure Chemical Industries, Ltd.) at 37° C. for 30 minutes to label with fluorescence. The cells were again suspended in a binding buffer (20 mM HEPES, DMEM containing 0.1% BSA) containing 4 mM of MnCl2.
(§2) 50 μl of a test substance of various concentrations obtained by the dilution with the binding buffer was added to the plate. Immediately thereafter, 50 μl (final volume: 100 μl/well) of the fluorescent RPMI-8866 cells (4×10^6 cells/ml) were added thereto, and they were incubated at room temperature for 30 minutes. After the shaking on a plate shaker (IKA MTS-4) at 800 rpm for 30 seconds, the solution was immediately removed to remove the unbound cells. The fluorescence quantity of the bound cells remaining in the wells was determined with a fluorescent plate reader (Wallac 1420 ARVO multi-label counter) (filter excitation wave length: 485 nm, emission wave length: 535 nm). The fluorescent strength thus obtained is proportional to the number of RPMI-8866 cells bound to VCAM-1 and remaining on the plate. The binding rate of each test material in various concentrations was determined while the fluorescent strength of the test material-free well was determined to be 100%. The concentration IC50 for the 50% binding inhibition was calculated.

A further experiment concerns the target T2, integrin α 4β1 (Homo sapiens, UniProt P05556+P13612).
T2 construct: cell strain Jurkat (ATCC TIB-152) of human T cells, known to express integrin α 4β1; host or cells: Jurkat (human T cell line)
The experiment in a line: VCAM antagonistic activity (VCAM-1/α4β1 binding assay), Jurkat cells binding to VCAM-1. Format: cell-based. To be noted: Jurkat cells (human T cells) binding to recombinant human VCAM-1; room temperature, 30 minutes; read-out: VCAM-1/α 4 β 1 linking antagonization activity IC50. On the procedure: (Test Example) VCAM Antagonistic Activity (VCAM-1/α4β1 Binding Assay):
The capacity of a test substance antagonistic to the binding of cell strain Jurkat (ATCC TIB-152) of human T cells, known to express integrin α 4β1, to VCAM-1 was determined.
as §1
Jurkat cells were washed with Dulbecco modified Eagle medium (SIGMA, hereinafter referred to as “DMEM”) twice and then incubated in DMEM containing 10 μg/ml of Calcein-AM (Wako Pure Chemical Industries, Ltd.) at 37° C. in dark place for 30 minutes to label with fluorescence. The cells were again suspended in a binding buffer (20 mM HEPES, DMEM containing 0.1% BSA).
as §2, with “Jurkat” for “RPMI-8866”

Structures are written as SMILES.

T2 sequence (P05556 21-798, one chain of several): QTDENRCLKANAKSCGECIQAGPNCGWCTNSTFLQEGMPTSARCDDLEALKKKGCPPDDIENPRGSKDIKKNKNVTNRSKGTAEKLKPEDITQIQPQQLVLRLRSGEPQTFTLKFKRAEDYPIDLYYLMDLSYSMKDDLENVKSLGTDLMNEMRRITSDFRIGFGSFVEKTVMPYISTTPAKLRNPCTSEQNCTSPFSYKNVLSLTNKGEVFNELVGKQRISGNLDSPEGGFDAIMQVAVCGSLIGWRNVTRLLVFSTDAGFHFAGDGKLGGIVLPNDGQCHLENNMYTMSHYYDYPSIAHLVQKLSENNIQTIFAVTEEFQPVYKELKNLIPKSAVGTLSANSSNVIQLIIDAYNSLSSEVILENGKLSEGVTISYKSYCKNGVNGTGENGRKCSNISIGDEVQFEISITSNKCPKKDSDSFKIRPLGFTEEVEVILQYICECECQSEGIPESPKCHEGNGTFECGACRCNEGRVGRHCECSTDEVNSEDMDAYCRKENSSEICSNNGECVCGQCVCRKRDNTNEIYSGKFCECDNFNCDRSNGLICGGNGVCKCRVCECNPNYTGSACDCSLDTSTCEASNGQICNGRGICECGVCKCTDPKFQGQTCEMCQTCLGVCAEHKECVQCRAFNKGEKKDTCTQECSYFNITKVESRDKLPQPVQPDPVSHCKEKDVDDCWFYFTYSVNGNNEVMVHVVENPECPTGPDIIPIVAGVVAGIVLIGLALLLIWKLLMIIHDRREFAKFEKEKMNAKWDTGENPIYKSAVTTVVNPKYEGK

With `O=C(NC(Cc1ccc(OCc2c(Cl)cccc2Cl)cc1)C(=O)O)c1cc(N2CCC(O)CC2)ccc1[N+](=O)[O-]` (stereo not shown) [Example 22], the IC50 on integrin α 4β7 came to 220 nM; on integrin α 4β1, 4600 nM.

Regarding `CN(CCO)c1ccc([N+](=O)[O-])c(C(=O)NC(Cc2ccc(OCc3c(Cl)cccc3Cl)cc2)C(=O)O)c1` (stereo not shown) [Example 23], the results for the IC50 at integrin α 4β7 and at integrin α 4β1 were 66 nM and 2200 nM, respectively.

For the molecule `CC(C)NCCCN(c1ccc([N+](=O)[O-])c(C(=O)NC(Cc2ccc(OCc3c(Cl)cccc3Cl)cc2)C(=O)O)c1)C(C)C` (stereo not shown) [Example 3], the IC50 stood at 120 nM on integrin α 4β7 and 5500 nM on integrin α 4β1.

As to `O=C(NC(Cc1ccc(OCc2c(Cl)cccc2Cl)cc1)C(=O)O)c1cc(N2CCNCC2)ccc1[N+](=O)[O-]` (stereo not shown) [Example 8], the IC50 came to 750 nM at integrin α 4β7 and 4000 nM on integrin α 4β1.

For `CSc1ncc(Cl)c(C(=O)Nc2ccc(C[C@H](NC(=O)c3cc(N(CCN(C(C)=O)C(C)C)C(C)C)ccc3[N+](=O)[O-])C(=O)O)cc2)n1` [Example 30], the figures for the IC50 at integrin α 4β7 and at integrin α 4β1 were 5.3 nM and 87 nM, respectively.

As for `CSc1ncc(Cl)c(C(=O)Nc2ccc(CC(NC(=O)c3cc(N(CCNC(C)C)C(C)C)ccc3[N+](=O)[O-])C(=O)O)cc2)n1` (stereo not shown) [Example 27], the IC50 at integrin α 4β7 is 1.2 nM; on integrin α 4β1, 27 nM.

Consider `CCCNCCCCN(CCC)c1ccc([N+](=O)[O-])c(C(=O)NC(Cc2ccc(OCc3c(Cl)cccc3Cl)cc2)C(=O)O)c1` (stereo not shown) [Example 4], for which the IC50 at integrin α 4β7 was determined as 120 nM; at integrin α 4β1, 3700 nM.

For the molecule `CCCN(C)c1ccc([N+](=O)[O-])c(C(=O)NC(Cc2ccc(OCc3c(Cl)cccc3Cl)cc2)C(=O)O)c1` (stereo not shown) [Example 12], the IC50 on integrin α 4β7 stood at 360 nM; on integrin α 4β1, 4100 nM.

Consider `O=C(NC(Cc1ccc(OCc2c(Cl)cccc2Cl)cc1)C(=O)O)c1ccc(N2CCNCC2)c([N+](=O)[O-])c1` (stereo not shown) [Example 25], for which the IC50 on integrin α 4β7 is 750 nM; on integrin α 4β1 it was 4000 nM.

For `CC(C)NCCN(c1ccc([N+](=O)[O-])c(C(=O)NC(Cc2ccc(OCc3c(Cl)cccc3Cl)cc2)C(=O)O)c1)C(C)C` (stereo not shown) [Example 2, N-(3-(N-isopropylaminoethyl-N′-isopropyl)amino-6-nitrobenzoyl)-O-(2,6-dichlorobenzyl)tyrosine], the IC50 on integrin α 4β7 is 100 nM; at integrin α 4β1, 4000 nM.

Turning to `O=C1CCN(c2ccc([N+](=O)[O-])c(C(=O)NC(Cc3ccc(OCc4c(Cl)cccc4Cl)cc3)C(=O)O)c2)CC1` (stereo not shown) [Example 21], the IC50 is 160 nM at integrin α 4β7 and 3300 nM on integrin α 4β1.

As to `CCNC/C=C/CN(CC)c1ccc([N+](=O)[O-])c(C(=O)NC(Cc2ccc(OCc3c(Cl)cccc3Cl)cc2)C(=O)O)c1` (stereo not shown) [Example 6], the IC50 was 150 nM on integrin α 4β7 and 4800 nM on integrin α 4β1.

Consider `CC(C)NCCN(c1ccc([N+](=O)[O-])c(C(=O)NC(Cc2ccc(NC(=O)c3snnc3-c3ccccc3)cc2)C(=O)O)c1)C(C)C` (stereo not shown) [Example 26], for which the IC50 on integrin α 4β7 is 37 nM; on integrin α 4β1 it was 2400 nM.

As for `CCNCCN(CC)c1ccc([N+](=O)[O-])c(C(=O)NC(Cc2ccc(OCc3c(Cl)cccc3Cl)cc2)C(=O)O)c1` (stereo not shown) [Example 7], the IC50 at integrin α 4β7 came to 160 nM; on integrin α 4β1 it was 9400 nM.

As to `CC1CN(c2ccc([N+](=O)[O-])c(C(=O)NC(Cc3ccc(OCc4c(Cl)cccc4Cl)cc3)C(=O)O)c2)C(C)CN1` (stereo not shown) [Example 5], the figures for the IC50 on integrin α 4β7 and at integrin α 4β1 were 140 nM and 4900 nM, respectively.

On to `CSc1ncc(Cl)c(C(=O)Nc2ccc(C[C@H](NC(=O)c3cc(N(CCNC(C)C)C(C)C)ccc3[N+](=O)[O-])C(=O)O)cc2)n1` [Example 28], for which the IC50 came to 1.1 nM on integrin α 4β7 and 23 nM at integrin α 4β1.

With `O=C(NC(Cc1ccc(OCc2c(Cl)cccc2Cl)cc1)C(=O)O)c1cc(N2CCOCC2)ccc1[N+](=O)[O-]` (stereo not shown) [Example 18], the IC50 at integrin α 4β7 worked out at 140 nM; on integrin α 4β1 it was 2200 nM.

Values taken from patent US7105520B2, “Phenylalanine derivatives” (Ajinomoto Co., Inc., priority 2000, dated 2006).
